Here are results for five compounds from US20090253719A1, “CRYSTALLINE SALT FORMS OF ANTIFOLATE COMPOUNDS AND METHODS OF MANUFACTURING THEREOF” (Chelsea Therapeutics, Inc., priority 2008, published 2009).

Structures are written as SMILES.

In one data set the test system is CCRF-CEM cells. The data set can be described thus: Growth inhibition of CCRF-CEM cells, continuous (120 hr) drug exposure. As to conditions: Homo sapiens, continuous 120 hr exposure. It counts as cell-based. Here is the method:
The human T-lymphoblastic leukemia cell line CCRF-CEM (described in Foley G F, et al., Cancer 1965; 18:522-9) was cultured as described in McCloskey D E, et al., J Biol Chem 1991; 266:6181-7 (both of which are incorporated herein by reference in their entirety) and verified to be negative for Mycoplasma contamination (Mycoplasma Plus PCR primers, Stratagene, La Jolla, Calif.).

Data set [1] can be described thus: Plasma concentration after oral L- or D-CH-1504 in non-fasted female Lewis rats. The data set is classed as in vivo. Here is the method: L- or D-CH-1504 was administered once orally to non-fasted female Lewis rats at a dose of 10 mg/kg (vehicle: 0.11% carboxymethylcellulose/0.45% TWEEN 80, formulation: suspension). About 750 μL of blood was collected from the jugular vein at 1 and 3 hours after administration. And then, whole of blood was collected from the femoral vein under diethyl ether anesthesia at 6 hours after administration. The collected blood was immediately centrifuged to obtain a plasma sample. L- and D-CH-1504 were extracted from the plasma by solid-phase extraction and were then determined with a LC/MS/MS.

How the values of data set [2] were obtained:
A salt screen of this compound was conducted with various pharmaceutically acceptable counterions to analyze aqueous solubility of the formed salts. Formed solids suspected of forming salts were analyzed by X-ray powder diffraction (XRPD).

A short description of data set [3]: Hygroscopicity study (storage at controlled relative humidity). The data set is classed as physicochemical. As to conditions: 75% relative humidity for five days. From the text: Hygroscopicity and approximate solubility in aqueous and buffered solutions of ammonium, besylate, calcium, esylate, sulfate, HCl, mesylate, napsylate, potassium, disodium, and tosylate salts were compared. In the hygroscopicity study, the salts were subjected to 75% relative humidity for five days.
An amorphous form was also generated. […] As described above, disodium salt Form A was a crystalline solid obtained using a water/IPA system or a water/acetone system. […] Heating was continued to achieve a temperature of 90° C. Crystallinity was not regained upon cooling to ambient.

As usually defined, the EC50 is the concentration at which the effect is half-maximal. In turn, `C=C(C[C@H](NC(=O)c1ccc(CCc2ccc3nc(N)nc(N)c3c2)cc1)C(=O)O)C(=O)O` [L-CH-1504, (S)-2-{4-[2-(2,4-diamino-quinazolin-6-yl)-ethyl]-benzoylamino}-4-methylene-pentanedioic acid] displayed an EC50 with CCRF-CEM cells of 6.1 nM.
The compound `C=C(C[C@@H](NC(=O)c1ccc(CCc2ccc3nc(N)nc(N)c3c2)cc1)C(=O)O)C(=O)O` [D-CH-1504] had an EC50 in the data set on CCRF-CEM cells of 29 nM. Besides, the “Plasma conc. of D-CH-1504” value in data set [1] (1 h after 10 mg/kg oral, non-fasted female Lewis rats, individual animals) turned out to be 11.0 ng/mL. In addition, the concentration at 3 h in data set [1] (female, Lewis, rat, plasma, oral, 10 mg/kg, 3 h after 10 mg/kg oral, non-fasted female Lewis rats, individual animals, read-out: Plasma conc. of D-CH-1504) stood at 14.3 ng/mL. Also, in data set [1] (female, Lewis, rat, plasma, oral, 10 mg/kg, 6 h after 10 mg/kg oral, non-fasted female Lewis rats, individual animals, read-out: Plasma conc. of D-CH-1504), the concentration at 6 h worked out at 8.34 ng/mL.
On to `C=C(CC(NC(=O)c1ccc(CCc2ccc3nc(N)nc(N)c3c2)cc1)C(=O)O)C(=O)O` (racemic) [CH-1504, 2-{4-[2-(2,4-diamino-quinazolin-6-yl)-ethyl]-benzoylamino}-4-methylene-pentanedioic acid], for which, in the data set with CCRF-CEM cells, the response was half-maximal at 8.6 nM (EC50). For the same compound, the “solubility of free acid form” value in data set [2] was “poor solubility”. Moreover, the isomerization in vivo result in data set [1] (by 6 hours after administration of each enantiomer, all samples) is reported as “could not be confirmed”.
Take `C=C(CC(NC(=O)c1ccc(CCc2ccc3nc(N)nc(N)c3c2)cc1)C(=O)O)C(=O)O.O=S(=O)(O)c1ccc2ccccc2c1` (stereo not shown) [napsylate salt]: the hygroscopicity study outcome in data set [3] is recorded as “remained unchanged”.
`CN(Cc1cnc2nc(N)nc(N)c2n1)c1ccc(C(=O)NC(CCC(=O)O)C(=O)O)cc1` (stereo not shown) [MTX, methotrexate, reference compound]: the EC50 with CCRF-CEM cells worked out at 15 nM.
